Format in all cases: functional, cell-based
Assay [1] in a line: Cytotoxicity against Homo sapiens (human) MDA231 cells after 48 hr by MTT assay. Particulars: MDA-MB-231, 48 h. (In general: Tetrazolium dyes change colour on reduction, which living cells bring about.)
The next assay relates to HeLa. Put plainly: Cytotoxicity against Homo sapiens (human) HeLa cells after 48 hr by MTT assay.
The test system of a further assay is HepG2. Put plainly: Cytotoxicity against Homo sapiens (human) HepG2 cells after 48 hr by MTT assay. Particulars: HepG2, 48 h.
Another assay deals with A549. The experiment in a line: Cytotoxicity against Homo sapiens (human) A549 cells after 48 hr by MTT assay. Particulars: A549, 48 h.

Usually IC50 stands for the concentration needed to halve the response being measured. A high value points to weaker potency. For `C=CCC(c1ccccc1)c1c(O)ccc2ccccc12` (stereo unspecified), the IC50 in assay [1] is 33 µM; in the assay with HeLa, 76 µM; with HepG2, 53 µM; in the assay with A549, 59 µM.

For `C=CCC(c1ccc(C)cc1)c1c(O)ccc2ccccc12` (stereo unspecified), the IC50 in assay [1] worked out at 6 µM; with HeLa it was 6.2 µM; in the assay on HepG2, 5.6 µM; in the assay with A549, 6.8 µM.

Consider `C=CCC(c1ccc(C(C)C)cc1)c1c(O)ccc2ccccc12` (stereo unspecified), for which the IC50 in assay [1] came to 16.5 µM; with HeLa, 12.5 µM; in the assay with HepG2, 15 µM; in the assay on A549, 13.5 µM.

With `C=CCC(c1ccc(F)cc1)c1c(O)ccc2ccccc12` (stereo unspecified), the IC50 in assay [1] was under 1 µM; in the assay with HeLa, under 1 µM; with HepG2 it was 1.2 µM; in the assay with A549, 1.6 µM.

As for `C=CCC(c1ccccc1F)c1c(O)ccc2ccccc12` (stereo unspecified), the IC50 was found to be 6.6 µM in assay [1], 6.8 µM with HeLa, 9.7 µM with HepG2 and 7.8 µM in the assay with A549.

As for `C=CCC(c1cccc(F)c1)c1c(O)ccc2ccccc12` (stereo unspecified), the IC50 was 9.1 µM in assay [1], 8.8 µM in the assay with HeLa, 6.5 µM in the assay with HepG2 and 8.6 µM with A549.

On to `C=CCC(c1ccc(Cl)cc1)c1c(O)ccc2ccccc12` (stereo unspecified), for which the 50% inhibitory concentration (IC50) was determined as 7.6 µM in assay [1], 6.4 µM in the assay on HeLa, 7.4 µM in the assay with HepG2 and 9.6 µM with A549.

Consider `COc1cccc2c1C(=O)c1c(O)c3c(c(O)c1C2=O)C[C@@](O)(C(=O)CO)C[C@@H]3O[C@H]1C[C@H](N)[C@H](O)[C@H](C)O1` [DOXORUBICIN], for which the IC50 (in assay [1]; in the assay on HeLa; in the assay with A549) was under 1 µM throughout.
